Laboratory results: US6989389B2, “Aryl ether substituted imidazoquinolines” (3M Innovative Properties Co., priority 2000, dated 2006)
Counter-ions that a name gives are not always drawn. Like-named read-outs stand apart in the source and are kept apart here.

Tested on: Peripheral blood mononuclear cells (PBMC)
Assay: Cytokine Induction in Human Cells (in vitro human blood cell system, IFN and TNF secreted into culture media)
Type: cell-based
Design: key to Lowest Effective Concentration (μM) Tumor Necrosis Factor / Lowest Effective Concentration (μM) Interferon: *: no induction was seen at any of the tested concentrations
Conditions: 18 to 24 hours, tested 30-0.014 μM
Excerpt: An in vitro human blood cell system is used to assess cytokine induction. Activity is based on the measurement of interferon and tumor necrosis factor (α) (IFN and TNF, respectively) secreted into culture media as described by Testerman et. al. In “Cytokine Induction by the Immunomodulators Imiquimod and S-27609”, Journal of Leukocyte Biology, 58, 365-372 (September, 1995).
Whole blood from healthy human donors is collected by venipuncture into EDTA vacutainer tubes. Peripheral blood mononuclear cells (PBMC) are separated from whole blood by density gradient centrifugation using Histopaque®-1077. Blood is diluted 1:1 with Dulbecco's Phosphate Buffered Saline (DPBS) or Hank's Balanced Salts Solution (HBSS). The PBMC layer is collected and washed twice with DPBS or HBSS and resuspended at 4×10^6 cells/mL in RPMI complete. The PBMC suspension is added to 48 well flat bottom sterile tissue culture plates (Costar, Cambridge, Mass. or Becton Dickinson Labware, Lincoln Park, N.J.) containing an equal volume of RPMI complete media containing test compound.
The compounds are solubilized in dimethyl sulfoxide (DMSO). The DMSO concentration should not exceed a final concentration of 1% for addition to the culture wells. The compounds are generally tested at concentrations ranging from 30-0.014 μM.
The solution of test compound is added at 60 μM to the first well containing RPMI complete and serial 3 fold dilutions are made in the wells. The PBMC suspension is then added to the wells in an equal volume, bringing the test compound concentrations to the desired range (30-0.014 μM). The final concentration of PBMC suspension is 2×10^6 cells/mL. The plates are covered with sterile plastic lids, mixed gently and then incubated for 18 to 24 hours at 37° C. in a 5% carbon dioxide atmosphere.
Following incubation the plates are centrifuged for 10 minutes at 1000 rpm (˜200×g) at 4° C. The cell-free culture supernatant is removed with a sterile polypropylene pipet and transferred to sterile polypropylene tubes. Samples are maintained at −30 to −70° C. until analysis. The samples are analyzed for interferon (α) by ELISA and for tumor necrosis factor (α) by ELISA or IGEN Assay.
Interferon (α) concentration is determined by ELISA using a Human Multi-Species kit from PBL Biomedical Laboratories, New Brunswick, N.J. Results are expressed in pg/mL.
Tumor necrosis factor (α) (TNF) concentration is determined using ELISA kits available from Biosource International, Camarillo, Calif. Alternately, the TNF concentration can be determined by Origen® M-Series Immunoassay and read on an IGEN M-8 analyzer from IGEN International, Gaithersburg, Md. The immunoassay uses a human TNF capture and detection antibody pair from Biosource International, Camarillo, Calif. Results are expressed in pg/mL.
The table below lists the lowest concentration found to induce interferon and the lowest concentration found to induce tumor necrosis factor for each compound.

[1] = Homo sapiens, PBMC, lowest concentration found to induce tumor necrosis factor (α), ELISA or IGEN assay, read-out: Lowest Effective Concentration (μM) Tumor Necrosis Factor
[2] = lowest concentration found to induce interferon (α), ELISA
[3] = Homo sapiens, PBMC, lowest concentration found to induce interferon (α), ELISA, read-out: Lowest Effective Concentration (μM) Interferon
[4] = lowest concentration found to induce tumor necrosis factor (α), ELISA or IGEN assay

Row | Structure (SMILES) | minimal effective concentration [1] [µM] | minimal effective concentration [3] [µM] | Lowest Effective Concentration (μM) Tumor Necrosis Factor [4] | further results
1 | CCC(COCc1ccc(C#N)cc1)n1cnc2c(N)nc3ccccc3c21 (stereo not drawn) [Example 46] |  |  |  | minimal effective concentration (lowest concentration found to induce interferon (α), ELISA, read-out: Lowest Effective Concentration (μM) Interferon): 0.01 µM; minimal effective concentration (lowest concentration found to induce tumor necrosis factor (α), ELISA or IGEN assay, read-out: Lowest Effective Concentration (μM) Tumor Necrosis Factor): 3.33 µM
2 | CC(C)C(COc1ccccc1[N+](=O)[O-])n1cnc2c(N)nc3ccccc3c21 (stereo not drawn) [Example 57] | 30 |  |  | Lowest Effective Concentration (μM) Interferon [2]: *
3 | Cc1ccc(COC(C)Cn2cnc3c(N)nc4ccccc4c32)cc1 (stereo not drawn) [Example 50] |  | 3.33 | * | 
4 | Cc1cccc(COC(Cn2cnc3c(N)nc4ccccc4c32)c2ccccc2)c1 (stereo not drawn) [Example 32] |  | 10 | * | 
5 | Cc1nc2c(N)nc3ccccc3c2n1CCOCC#Cc1ccccc1 [Example 118, 2-Methyl-1-{2-[(3-phenylprop-2-ynyl)oxy]ethyl}-1H-imidazo[4,5-c]quinolin-4-amine] | 0.04 | 0.01 |  | 
6 | CCCCc1nc2c(N)nc3c(c2n1CCOCc1ccc(C)cc1)CCCC3 [Example 90] | 10 | 0.12 |  | 
7 | CC(Cn1cnc2c(N)nc3ccccc3c21)OCc1ccc(C(F)(F)F)cc1 (stereo not drawn) [Example 68] |  | 3.33 | * | 
8 | CC(Cn1cnc2c(N)nc3ccccc3c21)Oc1ccc([N+](=O)[O-])cc1 (stereo not drawn) [Example 54] |  | 0.12 | * | 
9 | CCC(COCC(=O)OC)n1cnc2c(N)nc3ccccc3c21 (stereo not drawn) [Example 43] |  | 0.37 | * | 
10 | COC(=O)c1ccc(COCC(C(C)C)n2cnc3c(N)nc4ccccc4c32)cc1 (stereo not drawn) [Example 66] |  |  | * | Lowest Effective Concentration (μM) Interferon [2]: *
11 | CC(COCc1ccc(Cl)cc1)n1cnc2c(N)nc3ccccc3c21 (stereo not drawn) [Example 73] |  | 1.11 | * | 
12 | CC(C)C(COCc1cccc(Cl)c1)n1cnc2c(N)nc3ccccc3c21 (stereo not drawn) [Example 61] |  | 3.33 | * | 
13 | Nc1nc2ccccc2c2c1ncn2CCCCOCc1ccc(C(F)(F)F)cc1 [Example 78] |  |  | * | Lowest Effective Concentration (μM) Interferon [2]: *
14 | CC(C)(Cn1cnc2c(N)nc3ccccc3c21)OCc1ccc(Cl)cc1 [Example 34] |  |  | * | Lowest Effective Concentration (μM) Interferon [2]: *
15 | Nc1nc2ccccc2c2c1ncn2CCOCCCc1ccc(-n2cccc2)cc1 [Example 11, 1-(2-{3-[4-(1H-1-Pyrrolyl)phenyl]propoxy}ethyl)-1H-imidazo[4,5-c]quinolin-4-amine trifluoroacetate] |  | 1.11 | * | 
16 | Nc1nc2ccccc2c2c1ncn2CCOCCCc1ccccc1 [Example 22, 1-[2-(3-Phenylpropoxy)ethyl]-1H-imidazo[4,5-c]quinolin-4-amine] | 0.37 | 0.12 |  | 
17 | CCCCc1nc2c(N)nc3c(c2n1CCOCc1cccc(Cl)c1)CCCC3 [Example 89] | 10 | 0.37 |  | 
18 | CC(Cn1cnc2c(N)nc3ccccc3c21)OCc1ccc(C(C)(C)C)cc1 (stereo not drawn) [Example 67] | 30 |  |  | Lowest Effective Concentration (μM) Interferon [2]: *
19 | CCC(COCc1cccc(OC(F)(F)F)c1)n1cnc2c(N)nc3ccccc3c21 (stereo not drawn) [Example 45] |  | 0.37 | * | 
20 | CCC(COc1ccc(NC(C)=O)cc1)n1cnc2c(N)nc3ccccc3c21 (stereo not drawn) [Example 104] | 10 | 0.12 |  | 

Row | Structure (SMILES) | minimal effective concentration [1] [µM] | minimal effective concentration [3] [µM] | Lowest Effective Concentration (μM) Tumor Necrosis Factor [4] | further results
21 | Nc1ccccc1CCCOCCn1cnc2c(N)nc3ccccc3c21 [Example 18, 1-{2-[3-(2-Aminophenyl)propoxy]ethyl}-1H-imidazo[4,5-c]quinolin-4-amine trifluoroacetate] | 1.11 | 0.12 |  | 
22 | CC(COCc1ccccc1)n1cnc2c(N)nc3ccccc3c21 (stereo not drawn) [Example 70] |  | 0.37 | * | 
23 | Cc1ccc(COC(Cn2cnc3c(N)nc4ccccc4c32)c2ccccc2)cc1 (stereo not drawn) [Example 31] |  |  | * | Lowest Effective Concentration (μM) Interferon [2]: *
24 | CCC(COCc1cccc(C)c1)n1cnc2c(N)nc3ccccc3c21 (stereo not drawn) [Example 25] |  | 0.12 | * | 
25 | CC(C)C(COc1ccc([N+](=O)[O-])cc1)n1cnc2c(N)nc3ccccc3c21 (stereo not drawn) [Example 58] |  | 3.33 | * | 
26 | Cc1ccc([N+](=O)[O-])c(OC(C)Cn2cnc3c(N)nc4ccccc4c32)c1 (stereo not drawn) [Example 56] | 10 | 1.11 |  | 
27 | CCC(COc1ccc(-n2ccnc2)cc1)n1cnc2c(N)nc3ccccc3c21 (stereo not drawn) [Example 101] | 10 | 0.04 |  | 
28 | CCC(COCc1cccc(C(F)(F)F)c1)n1cnc2c(N)nc3ccccc3c21 (stereo not drawn) [Example 26] |  | 0.12 | * | 
29 | Cc1ccc(COCC(C)n2cnc3c(N)nc4ccccc4c32)cc1 (stereo not drawn) [Example 72] |  | 1.11 | * | 
30 | CN(C)c1ccc(CCCOCCn2cnc3c(N)nc4ccccc4c32)cc1 [Example 114, 1-(2-{3-[4-(Dimethylamino)phenyl]propoxy}ethyl)-1H-imidazo[4,5-c]quinolin-4-amine] | 0.37 | 0.12 |  | 
31 | C#CCOCCn1c(CCOC)nc2c(N)nc3ccccc3c21 [Example 144, 2-(2-Methoxyethyl)-1-[2-(prop-2-ynyloxy)ethyl]-1H-imidazo[4,5-c]quinolin-4-amine] | 0.04 | 0.01 |  | 
32 | Nc1nc2ccccc2c2c1ncn2COCCOc1ccc([N+](=O)[O-])cc1 [Example 83] |  | 0.37 | * | 
33 | COC(=O)c1ccc(COCCn2cnc3c(N)nc4ccccc4c32)cc1 [Example 41] | 3.33 | 1.11 |  | 
34 | CC(C)C(COCc1ccccc1)n1cnc2c(N)nc3ccccc3c21 (stereo not drawn) [Example 59] |  | 1.11 | * | 
35 | Nc1nc2ccccc2c2c1ncn2CC(OCc1cccc(Cl)c1)c1ccccc1 (stereo not drawn) [Example 30] |  | 3.33 | * | 
36 | CCC(COCc1ccc(OC(F)(F)F)cc1)n1cnc2c(N)nc3ccccc3c21 (stereo not drawn) [Example 48] |  | 0.12 | * | 
37 | CC(COCc1ccc(C(F)(F)F)cc1)n1cnc2c(N)nc3ccccc3c21 (stereo not drawn) [Example 74] |  | 0.37 | * | 
38 | CC(Cn1cnc2c(N)nc3ccccc3c21)Oc1ccccc1[N+](=O)[O-] (stereo not drawn) [Example 51] |  | 0.37 | * | 
39 | CCc1nc2c(N)nc3ccccc3c2n1C(CC)COCc1ccccc1 (stereo not drawn) [Example 82] |  |  | * | Lowest Effective Concentration (μM) Interferon [2]: *
